How the values were obtained:
[1] = system: Epidermal growth factor receptor (Homo sapiens), P00533 [L858R]; assay: Residual activity of EGFR L858R mutant at 1 uM by microplate scintillation counting
[2] = molecular target: Epidermal growth factor receptor (Homo sapiens, UniProt P00533); assay: Residual activity of wild type EGF-R at 1 uM by microplate scintillation counting
[3] = molecular target: Mitogen-activated protein kinase 8 (Homo sapiens) (UniProt P45983); assay: Residual activity of JNK1 at 1 uM by microplate scintillation counting
[4] = molecular target: T1, Serine/threonine-protein kinase Nek1 (Homo sapiens) (UniProt Q96PY6); assay: Residual activity of NEK1 at 0.1 uM by microplate scintillation counting
T1 sequence (whole entry): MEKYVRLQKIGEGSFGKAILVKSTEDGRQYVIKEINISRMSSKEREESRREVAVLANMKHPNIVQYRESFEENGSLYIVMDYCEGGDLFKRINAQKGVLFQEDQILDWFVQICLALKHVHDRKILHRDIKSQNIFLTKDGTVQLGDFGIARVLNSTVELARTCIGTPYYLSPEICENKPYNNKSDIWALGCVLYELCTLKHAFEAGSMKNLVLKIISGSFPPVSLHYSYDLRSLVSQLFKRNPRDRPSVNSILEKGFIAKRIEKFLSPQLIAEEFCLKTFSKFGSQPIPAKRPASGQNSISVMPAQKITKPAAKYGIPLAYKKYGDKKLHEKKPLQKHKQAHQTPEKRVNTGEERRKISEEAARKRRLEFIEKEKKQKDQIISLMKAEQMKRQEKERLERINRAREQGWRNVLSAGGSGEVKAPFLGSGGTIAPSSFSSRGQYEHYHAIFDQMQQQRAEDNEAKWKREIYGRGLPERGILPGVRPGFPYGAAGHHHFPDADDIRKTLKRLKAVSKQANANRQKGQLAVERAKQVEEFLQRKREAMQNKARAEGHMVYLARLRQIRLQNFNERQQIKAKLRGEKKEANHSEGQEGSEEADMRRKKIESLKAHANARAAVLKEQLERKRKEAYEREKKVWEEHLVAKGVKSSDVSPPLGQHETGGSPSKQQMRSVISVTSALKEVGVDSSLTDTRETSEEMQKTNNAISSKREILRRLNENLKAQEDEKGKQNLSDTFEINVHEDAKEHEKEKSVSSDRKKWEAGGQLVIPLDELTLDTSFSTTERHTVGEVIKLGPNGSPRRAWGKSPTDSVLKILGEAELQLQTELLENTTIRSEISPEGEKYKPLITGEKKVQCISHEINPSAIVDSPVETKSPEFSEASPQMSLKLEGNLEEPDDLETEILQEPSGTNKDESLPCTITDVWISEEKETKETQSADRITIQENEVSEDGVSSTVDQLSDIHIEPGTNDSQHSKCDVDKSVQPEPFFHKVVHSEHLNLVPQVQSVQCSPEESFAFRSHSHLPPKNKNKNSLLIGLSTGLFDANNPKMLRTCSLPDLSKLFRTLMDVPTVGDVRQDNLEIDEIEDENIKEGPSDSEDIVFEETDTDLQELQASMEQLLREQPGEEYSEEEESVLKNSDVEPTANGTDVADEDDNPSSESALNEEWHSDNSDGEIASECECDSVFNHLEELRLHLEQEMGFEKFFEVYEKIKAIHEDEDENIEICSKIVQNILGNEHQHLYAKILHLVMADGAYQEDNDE

[5] = molecular target: Serine/threonine-protein kinase 33 (Homo sapiens) (UniProt Q9BYT3); assay: Residual activity of STK33 at 1 uM by microplate scintillation counting
[6] = molecular target: T2, Myotonin-protein kinase (Homo sapiens) (UniProt Q09013); assay: Residual activity of DMPK at 0.1 uM by microplate scintillation counting
T2 sequence (whole entry): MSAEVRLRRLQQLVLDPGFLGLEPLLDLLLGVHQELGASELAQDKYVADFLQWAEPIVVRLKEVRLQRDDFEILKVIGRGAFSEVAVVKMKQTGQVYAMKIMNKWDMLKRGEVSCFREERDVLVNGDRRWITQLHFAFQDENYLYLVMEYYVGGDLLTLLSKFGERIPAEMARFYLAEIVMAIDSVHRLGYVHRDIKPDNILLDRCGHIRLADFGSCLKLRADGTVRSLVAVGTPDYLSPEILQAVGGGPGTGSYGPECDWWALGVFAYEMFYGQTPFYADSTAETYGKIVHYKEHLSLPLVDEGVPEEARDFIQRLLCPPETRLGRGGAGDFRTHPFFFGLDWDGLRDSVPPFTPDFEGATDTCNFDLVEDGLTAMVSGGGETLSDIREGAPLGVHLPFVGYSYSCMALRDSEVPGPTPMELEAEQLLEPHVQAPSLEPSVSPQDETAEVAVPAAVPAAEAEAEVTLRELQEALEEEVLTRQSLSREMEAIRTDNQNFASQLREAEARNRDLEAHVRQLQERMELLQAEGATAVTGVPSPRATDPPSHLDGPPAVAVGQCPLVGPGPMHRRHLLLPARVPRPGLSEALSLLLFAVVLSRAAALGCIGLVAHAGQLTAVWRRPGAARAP

[7] = molecular target: Serine/threonine-protein kinase PAK 4 (Homo sapiens) (UniProt O96013); assay: Residual activity of PAK4 at 0.1 uM by microplate scintillation counting
[8] = molecular target: SRSF protein kinase 2 (Homo sapiens) (UniProt P78362); assay: Residual activity of SRPK2 at 0.1 uM by microplate scintillation counting
SRSF protein kinase 2 (Homo sapiens), sequence (P78362 whole entry, looked up): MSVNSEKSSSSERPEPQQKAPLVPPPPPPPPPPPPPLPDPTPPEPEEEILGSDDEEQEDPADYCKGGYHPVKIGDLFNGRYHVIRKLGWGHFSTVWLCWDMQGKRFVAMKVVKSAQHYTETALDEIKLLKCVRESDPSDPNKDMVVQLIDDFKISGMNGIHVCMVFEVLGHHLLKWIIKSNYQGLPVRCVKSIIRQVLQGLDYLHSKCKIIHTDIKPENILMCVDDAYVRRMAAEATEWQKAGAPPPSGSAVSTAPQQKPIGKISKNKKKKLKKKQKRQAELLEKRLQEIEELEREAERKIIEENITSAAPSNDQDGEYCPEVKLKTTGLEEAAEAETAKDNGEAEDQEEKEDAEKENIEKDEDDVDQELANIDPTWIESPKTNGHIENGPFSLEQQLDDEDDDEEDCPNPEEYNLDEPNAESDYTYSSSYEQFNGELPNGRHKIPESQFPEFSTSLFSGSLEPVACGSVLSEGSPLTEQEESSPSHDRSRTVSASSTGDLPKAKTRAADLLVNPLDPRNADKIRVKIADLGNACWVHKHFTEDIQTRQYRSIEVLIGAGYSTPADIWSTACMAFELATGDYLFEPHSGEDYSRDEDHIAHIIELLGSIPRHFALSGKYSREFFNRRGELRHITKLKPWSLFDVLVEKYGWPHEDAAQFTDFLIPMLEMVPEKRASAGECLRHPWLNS

Serine/threonine-protein kinase 33 (Homo sapiens), sequence (Q9BYT3 whole entry, looked up): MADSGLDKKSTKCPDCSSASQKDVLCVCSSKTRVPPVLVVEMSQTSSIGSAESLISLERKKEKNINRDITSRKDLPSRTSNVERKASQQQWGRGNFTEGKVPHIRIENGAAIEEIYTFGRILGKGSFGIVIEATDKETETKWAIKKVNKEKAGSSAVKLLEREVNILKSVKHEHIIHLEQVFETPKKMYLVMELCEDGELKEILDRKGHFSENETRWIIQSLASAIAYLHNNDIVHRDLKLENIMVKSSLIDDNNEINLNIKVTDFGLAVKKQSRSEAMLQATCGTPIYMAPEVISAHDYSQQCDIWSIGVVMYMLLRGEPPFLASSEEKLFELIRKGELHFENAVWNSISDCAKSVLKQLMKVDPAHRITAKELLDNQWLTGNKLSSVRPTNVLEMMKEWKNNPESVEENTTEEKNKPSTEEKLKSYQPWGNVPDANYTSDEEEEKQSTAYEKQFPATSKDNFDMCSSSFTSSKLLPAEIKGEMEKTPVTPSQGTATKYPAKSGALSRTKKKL
Serine/threonine-protein kinase PAK 4 (Homo sapiens), sequence (O96013 whole entry, looked up): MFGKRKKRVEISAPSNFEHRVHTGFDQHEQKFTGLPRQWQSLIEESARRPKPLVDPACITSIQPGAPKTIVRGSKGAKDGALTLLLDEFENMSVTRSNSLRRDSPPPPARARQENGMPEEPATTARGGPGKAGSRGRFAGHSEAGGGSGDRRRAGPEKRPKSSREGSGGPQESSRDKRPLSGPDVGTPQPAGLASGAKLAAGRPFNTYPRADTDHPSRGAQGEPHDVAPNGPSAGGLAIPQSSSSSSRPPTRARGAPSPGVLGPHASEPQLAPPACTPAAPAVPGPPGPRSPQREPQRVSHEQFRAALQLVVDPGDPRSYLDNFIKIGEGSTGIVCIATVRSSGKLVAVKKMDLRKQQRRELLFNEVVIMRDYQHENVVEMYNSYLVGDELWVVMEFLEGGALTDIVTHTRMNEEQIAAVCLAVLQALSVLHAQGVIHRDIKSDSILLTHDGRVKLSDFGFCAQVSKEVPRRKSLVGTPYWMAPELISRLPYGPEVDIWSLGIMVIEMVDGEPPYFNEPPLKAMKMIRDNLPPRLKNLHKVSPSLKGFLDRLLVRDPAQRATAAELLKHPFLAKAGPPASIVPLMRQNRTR
Mitogen-activated protein kinase 8 (Homo sapiens), sequence (P45983 whole entry): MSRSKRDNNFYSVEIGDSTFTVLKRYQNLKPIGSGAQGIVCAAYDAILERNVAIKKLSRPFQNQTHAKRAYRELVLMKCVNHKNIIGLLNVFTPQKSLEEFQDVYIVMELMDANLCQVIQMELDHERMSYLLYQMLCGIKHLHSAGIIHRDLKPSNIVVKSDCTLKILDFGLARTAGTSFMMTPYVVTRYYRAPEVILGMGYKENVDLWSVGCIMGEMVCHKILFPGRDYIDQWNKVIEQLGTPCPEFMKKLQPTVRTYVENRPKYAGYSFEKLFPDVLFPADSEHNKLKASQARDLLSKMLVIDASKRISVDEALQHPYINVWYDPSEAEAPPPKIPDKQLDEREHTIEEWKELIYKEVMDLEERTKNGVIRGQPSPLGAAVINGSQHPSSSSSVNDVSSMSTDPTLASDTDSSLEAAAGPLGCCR

Compound | residual activity [1] [%] | residual activity [2] [%] | residual activity [3] [%] | residual activity [4] [%] | residual activity [5] [%] | residual activity [6] [%] | residual activity [7] [%] | residual activity [8] [%]
COc1cc2c(Oc3ccc(-c4nc5ccccc5s4)cc3)ncnc2cc1OCCCN1CCN(C)CC1 | 63 | 77 | 142 | 87 | 72 | 128 | 102 | 103
COc1cc2c(Oc3ccc(-c4nc5ccccc5s4)cc3F)ncnc2cc1OCCCN1CCN(C)CC1 | 80 | 96 | 154 | 93 | 107 | 102 | 99 | 100
COc1cc2c(Oc3ccc(-c4nc5ccccc5s4)cc3)ncnc2cc1OCCCN1CCCC1 | 72 | 91 | 142 | 98 | 84 | 110 | 96 | 96

From ChEMBL document CHEMBL1152560, “Substituted 2-arylbenzothiazoles as kinase inhibitors: hit-to-lead optimization” (Bioorg Med Chem, 2009)
